The values below come from article PMC4006692 (Journal of biomolecular screening, 2013).

The structures appear in SMILES notation.

One data set concerns the target HIV-1 Nef dimerization (Human immunodeficiency virus type 1 group M subtype B, UniProt P03407). Particulars: up to a final DMSO concentration of 2.5%.
The subject of another data set is 293T cells. As to conditions: final DMSO concentration.

Chain of HIV-1 Nef dimerization (P03407 2-210): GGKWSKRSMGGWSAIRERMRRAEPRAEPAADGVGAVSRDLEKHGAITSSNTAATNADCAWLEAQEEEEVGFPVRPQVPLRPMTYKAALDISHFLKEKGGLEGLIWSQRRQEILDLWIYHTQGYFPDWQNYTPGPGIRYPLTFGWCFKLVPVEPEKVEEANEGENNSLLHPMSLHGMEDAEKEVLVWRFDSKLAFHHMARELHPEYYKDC

As for `C[S+](C)[O-]` [DMSO], the “BiFC/mRFP ratio of WT2A” value at HIV-1 Nef dimerization is “essentially unchanged”. In the data set on 293T cells, the “IC50 of cell loss (cell density)” value is “approximately 1%” and the “concentration causing cell loss” value was “above 0.6%”.
